Here are results for one compound from BindingDB's records for doi:10.1021/ml2002482 (2012).

This experiment in a line: Inhibition of human recombinant ICAM-1 adhesion into human Jurkat cells after 1 hr.

pIC50: −log10 of the molar value.

By pIC50 is commonly meant −log10 of the IC50, conventionally taken in molar units. Take `CS(=O)(=O)c1cccc(C[C@H](NC(=O)c2c(Cl)cc3c(c2Cl)CCN(C(=O)c2ccc4ccoc4c2)C3)C(=O)O)c1`: the pIC50 is 8.53.
